Key:
streptavidin = streptavidin (Streptomyces avidinii, UniProt P22629); conditions: association constant; cited from earlier work
SAPE [1] = target: T1, SAPE (Streptomyces avidinii, UniProt P22629); experiment: stability of DMT protected biotin against SAPE staining after 3 hour ligation (FIG. 13); conditions: array probes after 3 hours ligation reaction, no acid treatment
SAPE [2] = target: T1, SAPE; experiment: displacement of SAPE from desthiobiotin by biotin solution and re-staining (FIG. 15); format: binding; conditions: 1 mM biotin solution, then restaining with SAPE
Procedure: The next step was to displace the streptavidin-phycoerythrin conjugate bound to the desthiobiotin of the ligated A/T probes. This was done by washing the array with solution biotin (1 mM) in NaCl (150 mM) for 4 hours at room temperature. The displaced streptavidin-phycoerythrin conjugate previous bound to the desthiobiotinylated probes was then removed.
FIGS. 15(A)-15(C) contain images of sub-regions with sets of probes to test the effectiveness of binding and displacement of desthiobiotin with biotin. Specifically, the probe sets within the images are ligated with desthiobiotin labeled probes. […] Washing was also performed to remove the displaced biotin-SAPE conjugate. FIG. 15(C) contains an image after subsequent restraining with SAPE.

T1 sequence (P22629 25-183): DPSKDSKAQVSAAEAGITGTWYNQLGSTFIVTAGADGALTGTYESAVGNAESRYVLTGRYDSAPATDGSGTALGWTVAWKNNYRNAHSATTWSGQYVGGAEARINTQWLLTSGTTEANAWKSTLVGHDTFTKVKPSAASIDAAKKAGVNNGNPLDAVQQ
Sequence of streptavidin (P22629 25-183, species assumed): as the sequence (P22629 25-183) above

Compound | binding affinity with streptavidin (streptavidin) [M⁻¹] | intensity after SAPE staining (SAPE [1]) | displacement of SAPE stain and re-staining (SAPE [2])
O=C(O)CCCC[C@@H]1SC[C@@H]2NC(=O)N[C@@H]21 [biotin] | 1e+15 | extremely strong | 
C[C@@H]1NC(=O)N[C@@H]1CCCCCC(=O)O [desthiobiotin] | 5e+13 |  | effectively displace and remove a labeling stain from desthiobiotin
